Earlier results, collected in US6573290B1 (ILEX Oncology, Inc., priority 1999, dated 2003).
Each block holds one molecule with its values, some of them ahead of it.

How the values were obtained:
Ki-ras mutations = conditions: AOM-treated rats; reduced from 90%
tumor putrescine = conditions: DFMO infusion, rat-tumor model
[1] = not given; remark: listed apart in the source
prostoglandin E2 (PGE2) = conditions: 300 mg/day, one month phase IIa trial

Structure (SMILES): NCCCC(N)(C(=O)O)C(F)F (racemic) [DFMO, 2-(difluoromethyl)-DL-ornithine]
number of tumors harboring Ki-ras mutations (Ki-ras mutations): 36%
decrease in tumor putrescine levels (tumor putrescine): 90%

time of peak plasma levels (after an oral dose): roughly 3 hours
effective half-life (fasted conditions): roughly 11 hours
dose excreted in feces (following a single dose): 57%
dose excreted in urine (following a single dose): 27%
delay of plasma levels with high fat meal (taken with a high fat meal): 1 to 2 h
increase in total absorption with high fat meal (taken with a high fat meal): 10-20%
protein binding (within the clinical dose range): highly protein bound
Structure (SMILES): Cc1ccc(-c2cc(C(F)(F)F)nn2-c2ccc(S(N)(=O)=O)cc2)cc1 [celecoxib, 4-[5-(4-methyphenyl)-3-(trifluoromethyl)-1H-pyrazol-1-yl]benzenesulfonamide]

Structure (SMILES): CC[C@H]1OC(=O)[C@H](C)[C@@H](O[C@H]2C[C@@](C)(OC)[C@@H](O)[C@H](C)O2)[C@H](C)[C@@H](O[C@@H]2O[C@H](C)C[C@H](N(C)C)[C@H]2O)[C@](C)(OC)C[C@@H](C)C(=O)[C@H](C)[C@@H](O)[C@]1(C)O [clarithrymycin]
adverse effect: pseudomembranous colitis [1]: 1%
adverse effect: diarrhea ([1]; in vivo): 10%

Structure (SMILES): CC(C)Cc1ccc(C(C)C(=O)O)cc1 (stereo not shown) [ibuprofen]
PGE2 levels in flat mucosa (prostoglandin E2 (PGE2)): significant decrease

Structure (SMILES): Cc1c(OCC(F)(F)F)ccnc1C[S+]([O-])c1nc2ccccc2[nH]1 (stereo not shown) [lansoprazole]
adverse effect: diarrhea ([1]; in vivo): 8%
adverse effect: headache ([1]; in vivo): 5%
adverse effect: nausea ([1]; in vivo): 3%

Structure (SMILES): Cc1ncc([N+](=O)[O-])n1CCO [metronidazole]
adverse effect: disulfiram-like reaction with alcohol ingestion ([1]; in vivo): 20%
adverse effect: rash ([1]; in vivo): 5%

Structure (SMILES): COc1ccc2[nH]c([S+]([O-])Cc3ncc(C)c(OC)c3C)nc2c1 (stereo not shown) [omeprazole]
adverse effect: dizziness ([1]; in vivo): 2%

Structure (SMILES): CN1C(C(=O)Nc2ccccn2)=C(O)c2ccccc2S1(=O)=O [piroxicam]
number of tumors harboring Ki-ras mutations (Ki-ras mutations): 25%
